Reference: ChEMBL document CHEMBL5634077, “Recent advances in 1,2,3- and 1,2,4-triazole hybrids as antimicrobials and their SAR: A critical review” (2023)
In brackets after ≈: the same amount, converted by molar mass.

Columns and labels:
Format in all cases: functional
Enterococcus faecalis = assay: Antibacterial activity against Enterococcus faecalis assessed as bacterial growth inhibition
[1] = test system: Staphylococcus epidermidis; assay: Antibacterial activity against Methicillin-sensitive Staphylococcus epidermidis assessed as bacterial growth inhibition
Staphylococcus aureus [2] = assay: Antibacterial activity against Methicillin-sensitive Staphylococcus aureus assessed as bacterial growth inhibition
Staphylococcus aureus [3] = assay: Antibacterial activity against Methicillin-resistant Staphylococcus aureus assessed as bacterial growth inhibition
Enterococcus faecium = assay: Antibacterial activity against Enterococcus faecium assessed as inhibition of bacterial growth
[4] = test system: Staphylococcus epidermidis; assay: Antibacterial activity against Methicillin-resistant Staphylococcus epidermidis assessed as bacterial growth inhibition
Proteus vulgaris = assay: Antibacterial activity against Proteus vulgaris RCMB 004 assessed as diameter of inhibition zone incubated for 24 hrs by well diffusion assay
Bacillus subtilis [5] = assay: Antibacterial activity against Bacillus subtilis RCMB 010069 assessed as diameter of inhibition zone incubated for 24 hrs by well diffusion assay
Escherichia coli [6] = assay: Antibacterial activity against Escherichia coli RCMB 010052 assessed as diameter of inhibition zone incubated for 24 hrs by well diffusion assay
Geotrichum candidum = assay: Antifungal activity against Geotrichum candidum RCMB 052006 assessed as diameter of inhibition zone incubated for 24 hrs by well diffusion assay
Staphylococcus aureus [7] = assay: Antibacterial activity against Staphylococcus aureus assessed as diameter of inhibition zone incubated for 24 hrs by well diffusion assay
Aspergillus flavus = assay: Antifungal activity against Aspergillus flavus assessed as diameter of inhibition zone incubated for 24 hrs by well diffusion assay
Bacillus subtilis [8] = assay: Antibacterial activity against Bacillus subtilis MTCC 441 assessed as reduction in microbial growth
Aspergillus niger = assay: Antifungal activity against Aspergillus niger MTCC 8189 assessed as inhibition of fungal growth
Candida albicans = assay: Antifungal activity against Candida albicans MTCC 227 assessed as inhibition of fungal growth
[9] = test system: Staphylococcus epidermidis; assay: Antibacterial activity against Staphylococcus epidermidis assessed as reduction in microbial growth
Escherichia coli [10] = assay: Antibacterial activity against Escherichia coli MTCC 16521 assessed as reduction in microbial growth

SMILES	MIC (Enterococcus faecalis)	MIC [1]	MIC (Staphylococcus aureus [2])	MIC (Staphylococcus aureus [3])	MIC (Enterococcus faecium)	MIC [4]	further results
CCO/N=C1/C(=O)N(Cc2cn(CC(=O)N3CCC[C@@H]4CN(c5c(F)cc6c(=O)c(C(=O)O)cn(C7CC7)c6c5OC)C[C@@H]43)nn2)c2cccc(F)c21	0.06 µg/mL (≈ 0.0821 µM)	0.06 µg/mL (≈ 0.0821 µM)	0.06 µg/mL (≈ 0.0821 µM)	0.06 µg/mL (≈ 0.0821 µM)	0.06 µg/mL (≈ 0.0821 µM)	0.06 µg/mL (≈ 0.0821 µM)	–
Cc1c(C(=O)/C=C/c2ccncc2)nnn1-c1ccc(-n2nnc(C(=O)/C=C/c3ccncc3)c2C)cc1	–	–	–	–	–	–	diameter of the inhibition zone (DIZ) (Proteus vulgaris): 17.3 mm; diameter of the inhibition zone (DIZ) (Bacillus subtilis [5]): 28.2 mm; diameter of the inhibition zone (DIZ) (Escherichia coli [6]): 26.3 mm; diameter of the inhibition zone (DIZ) (Geotrichum candidum): 21.3 mm; diameter of the inhibition zone (DIZ) (Staphylococcus aureus [7]): 19.2 mm; diameter of the inhibition zone (DIZ) (Aspergillus flavus): 18.43 mm
Cc1c(C(=O)/C=C/c2c[nH]c3ccccc23)nnn1-c1ccc(-n2nnc(C(=O)/C=C/c3c[nH]c4ccccc34)c2C)cc1	–	–	–	–	–	–	diameter of the inhibition zone (DIZ) (Proteus vulgaris): 15.4 mm; diameter of the inhibition zone (DIZ) (Bacillus subtilis [5]): 34.2 mm; diameter of the inhibition zone (DIZ) (Escherichia coli [6]): 25 mm; diameter of the inhibition zone (DIZ) (Geotrichum candidum): 17.2 mm; diameter of the inhibition zone (DIZ) (Staphylococcus aureus [7]): 12 mm; diameter of the inhibition zone (DIZ) (Aspergillus flavus): 19.2 mm
CO/N=C1/C(=O)N(Cc2cn(CC(=O)N3CCC[C@@H]4CN(c5c(F)cc6c(=O)c(C(=O)O)cn(C7CC7)c6c5OC)C[C@@H]43)nn2)c2cc(C)ccc21	0.06 µg/mL (≈ 0.0842 µM)	0.06 µg/mL (≈ 0.0842 µM)	0.06 µg/mL (≈ 0.0842 µM)	0.06 µg/mL (≈ 0.0842 µM)	0.06 µg/mL (≈ 0.0842 µM)	0.06 µg/mL (≈ 0.0842 µM)	–
CO/N=C1/C(=O)N(Cc2cn(CC(=O)N3CCC[C@@H]4CN(c5c(F)cc6c(=O)c(C(=O)O)cn(C7CC7)c6c5OC)C[C@@H]43)nn2)c2cc(F)ccc21	0.06 µg/mL (≈ 0.0837 µM)	0.06 µg/mL (≈ 0.0837 µM)	0.06 µg/mL (≈ 0.0837 µM)	0.06 µg/mL (≈ 0.0837 µM)	0.06 µg/mL (≈ 0.0837 µM)	0.06 µg/mL (≈ 0.0837 µM)	–
O=C(NCc1cn(CCCCn2cc(CNC(=O)Nc3ccc(F)cc3)nn2)nn1)Nc1ccc(F)cc1	–	–	–	–	–	–	MIC (Bacillus subtilis [8]): 6 µM; MIC (Aspergillus niger): 6 µM (≈ 3.15 µg/mL); MIC (Candida albicans): 6 µM (≈ 3.15 µg/mL); MIC [9]: 6 µM; MIC (Escherichia coli [10]): 6 µM
COc1c(N2C[C@H]3CCCN(C(=O)Cn4cc(CN5C(=O)C(=O)c6c(F)cccc65)nn4)[C@H]3C2)c(F)cc2c(=O)c(C(=O)O)cn(C3CC3)c12	0.06 µg/mL (≈ 0.0873 µM)	0.06 µg/mL (≈ 0.0873 µM)	0.06 µg/mL (≈ 0.0873 µM)	0.06 µg/mL (≈ 0.0873 µM)	0.06 µg/mL (≈ 0.0873 µM)	0.06 µg/mL (≈ 0.0873 µM)	–
COc1c(N2C[C@H]3CCCN(C(=O)Cn4cc(CN5C(=O)C(=O)c6ccc(F)cc65)nn4)[C@H]3C2)c(F)cc2c(=O)c(C(=O)O)cn(C3CC3)c12	0.06 µg/mL (≈ 0.0873 µM)	0.06 µg/mL (≈ 0.0873 µM)	0.06 µg/mL (≈ 0.0873 µM)	0.06 µg/mL (≈ 0.0873 µM)	0.06 µg/mL (≈ 0.0873 µM)	0.06 µg/mL (≈ 0.0873 µM)	–
CCO/N=C1/C(=O)N(Cc2cn(CC(=O)N3CCC[C@@H]4CN(c5c(F)cc6c(=O)c(C(=O)O)cn(C7CC7)c6c5OC)C[C@@H]43)nn2)c2ccccc21	0.06 µg/mL (≈ 0.0842 µM)	0.06 µg/mL (≈ 0.0842 µM)	0.06 µg/mL (≈ 0.0842 µM)	0.06 µg/mL (≈ 0.0842 µM)	0.06 µg/mL (≈ 0.0842 µM)	0.06 µg/mL (≈ 0.0842 µM)	–
COc1ccc(NC(=O)NCc2cn(CCCCn3cc(CNC(=O)Nc4ccc(OC)cc4)nn3)nn2)cc1	–	–	–	–	–	–	MIC (Bacillus subtilis [8]): 6 µM; MIC (Aspergillus niger): 5 µM (≈ 2.74 µg/mL); MIC (Candida albicans): 6 µM (≈ 3.29 µg/mL); MIC [9]: 6 µM; MIC (Escherichia coli [10]): 6 µM
COc1ccc(NC(=O)NCc2cn(Cc3cccc(Cn4cc(CNC(=O)Nc5ccc(OC)cc5)nn4)c3)nn2)cc1	–	–	–	–	–	–	MIC (Bacillus subtilis [8]): 6 µM; MIC (Aspergillus niger): 6 µM (≈ 3.58 µg/mL); MIC (Candida albicans): 6 µM (≈ 3.58 µg/mL); MIC [9]: 6 µM; MIC (Escherichia coli [10]): 6 µM
CO/N=C1/C(=O)N(Cc2cn(CC(=O)N3CCC[C@@H]4CN(c5c(F)cc6c(=O)c(C(=O)O)cn(C7CC7)c6c5OC)C[C@@H]43)nn2)c2cccc(F)c21	0.06 µg/mL (≈ 0.0837 µM)	0.06 µg/mL (≈ 0.0837 µM)	0.06 µg/mL (≈ 0.0837 µM)	0.06 µg/mL (≈ 0.0837 µM)	0.06 µg/mL (≈ 0.0837 µM)	0.06 µg/mL (≈ 0.0837 µM)	–
Cc1c(C(=O)/C=C/c2ccccn2)nnn1-c1ccc(-n2nnc(C(=O)/C=C/c3ccccn3)c2C)cc1	–	–	–	–	–	–	diameter of the inhibition zone (DIZ) (Proteus vulgaris): 24.37 mm; diameter of the inhibition zone (DIZ) (Bacillus subtilis [5]): 32.2 mm; diameter of the inhibition zone (DIZ) (Escherichia coli [6]): 31.3 mm; diameter of the inhibition zone (DIZ) (Geotrichum candidum): 24 mm; diameter of the inhibition zone (DIZ) (Staphylococcus aureus [7]): 22.02 mm; diameter of the inhibition zone (DIZ) (Aspergillus flavus): 22 mm
COc1c(N2C[C@H]3CCCN(C(=O)Cn4cc(CN5C(=O)C(=O)c6ccc(C)cc65)nn4)[C@H]3C2)c(F)cc2c(=O)c(C(=O)O)cn(C3CC3)c12	0.06 µg/mL (≈ 0.0878 µM)	0.06 µg/mL (≈ 0.0878 µM)	0.06 µg/mL (≈ 0.0878 µM)	0.06 µg/mL (≈ 0.0878 µM)	0.06 µg/mL (≈ 0.0878 µM)	0.06 µg/mL (≈ 0.0878 µM)	–
COc1ccc(NC(=O)NCc2cn(CCCCCn3cc(CNC(=O)Nc4ccc(OC)cc4)nn3)nn2)cc1	–	–	–	–	–	–	MIC (Bacillus subtilis [8]): 6 µM; MIC (Aspergillus niger): 6 µM (≈ 3.38 µg/mL); MIC (Candida albicans): 6 µM (≈ 3.38 µg/mL); MIC [9]: 6 µM; MIC (Escherichia coli [10]): 6 µM
Cc1c(-c2cc(-c3c[nH]c4ccccc34)nc(S)n2)nnn1-c1ccc(-n2nnc(-c3cc(-c4c[nH]c5ccccc45)nc(S)n3)c2C)cc1	–	–	–	–	–	–	diameter of the inhibition zone (DIZ) (Proteus vulgaris): 22.2 mm; diameter of the inhibition zone (DIZ) (Bacillus subtilis [5]): 37.8 mm; diameter of the inhibition zone (DIZ) (Escherichia coli [6]): 30.9 mm; diameter of the inhibition zone (DIZ) (Geotrichum candidum): 21.1 mm; diameter of the inhibition zone (DIZ) (Staphylococcus aureus [7]): 20.6 mm; diameter of the inhibition zone (DIZ) (Aspergillus flavus): 19.1 mm
O=C(NCc1cn(CCCCCCn2cc(CNC(=O)Nc3ccc(F)cc3)nn2)nn1)Nc1ccc(F)cc1	–	–	–	–	–	–	MIC (Bacillus subtilis [8]): 6 µM; MIC (Aspergillus niger): 6 µM (≈ 3.32 µg/mL); MIC (Candida albicans): 6 µM (≈ 3.32 µg/mL); MIC [9]: 6 µM; MIC (Escherichia coli [10]): 6 µM
COc1c(N2C[C@@H]3CCCN[C@@H]3C2)c(F)cc2c(=O)c(C(=O)O)cn(C3CC3)c12 [MOXIFLOXACIN]	0.06 µg/mL (≈ 0.149 µM)	0.06 µg/mL (≈ 0.149 µM)	0.06 µg/mL (≈ 0.149 µM)	0.06 µg/mL (≈ 0.149 µM)	0.06 µg/mL (≈ 0.149 µM)	0.06 µg/mL (≈ 0.149 µM)	–
COc1ccc(NC(=O)NCc2cn(CCCCCCn3cc(CNC(=O)Nc4ccc(OC)cc4)nn3)nn2)cc1	–	–	–	–	–	–	MIC (Bacillus subtilis [8]): 6 µM; MIC (Aspergillus niger): 6 µM (≈ 3.46 µg/mL); MIC (Candida albicans): 6 µM (≈ 3.46 µg/mL); MIC [9]: 6 µM; MIC (Escherichia coli [10]): 6 µM
COc1ccc(NC(=O)NCc2cn(CCCn3cc(CNC(=O)Nc4ccc(OC)cc4)nn3)nn2)cc1	–	–	–	–	–	–	MIC (Bacillus subtilis [8]): 6 µM; MIC (Aspergillus niger): 6 µM (≈ 3.21 µg/mL); MIC (Candida albicans): 6 µM (≈ 3.21 µg/mL); MIC [9]: 6 µM; MIC (Escherichia coli [10]): 6 µM
CO/N=C1/C(=O)N(Cc2cn(CC(=O)N3CCC[C@@H]4CN(c5c(F)cc6c(=O)c(C(=O)O)cn(C7CC7)c6c5OC)C[C@@H]43)nn2)c2ccccc21	0.06 µg/mL (≈ 0.0859 µM)	0.06 µg/mL (≈ 0.0859 µM)	0.06 µg/mL (≈ 0.0859 µM)	0.06 µg/mL (≈ 0.0859 µM)	0.06 µg/mL (≈ 0.0859 µM)	0.06 µg/mL (≈ 0.0859 µM)	–
CCO/N=C1/C(=O)N(Cc2cn(CC(=O)N3CCC[C@@H]4CN(c5c(F)cc6c(=O)c(C(=O)O)cn(C7CC7)c6c5OC)C[C@@H]43)nn2)c2cc(F)ccc21	0.06 µg/mL (≈ 0.0821 µM)	0.06 µg/mL (≈ 0.0821 µM)	0.06 µg/mL (≈ 0.0821 µM)	0.06 µg/mL (≈ 0.0821 µM)	0.06 µg/mL (≈ 0.0821 µM)	0.06 µg/mL (≈ 0.0821 µM)	–
COc1c(N2C[C@H]3CCCN(C(=O)Cn4cc(CN5C(=O)C(=O)c6ccccc65)nn4)[C@H]3C2)c(F)cc2c(=O)c(C(=O)O)cn(C3CC3)c12	0.06 µg/mL (≈ 0.0896 µM)	0.06 µg/mL (≈ 0.0896 µM)	0.06 µg/mL (≈ 0.0896 µM)	0.06 µg/mL (≈ 0.0896 µM)	0.06 µg/mL (≈ 0.0896 µM)	0.06 µg/mL (≈ 0.0896 µM)	–
CCO/N=C1/C(=O)N(Cc2cn(CC(=O)N3CCC[C@@H]4CN(c5c(F)cc6c(=O)c(C(=O)O)cn(C7CC7)c6c5OC)C[C@@H]43)nn2)c2cc(C)ccc21	0.06 µg/mL (≈ 0.0826 µM)	0.06 µg/mL (≈ 0.0826 µM)	0.06 µg/mL (≈ 0.0826 µM)	0.06 µg/mL (≈ 0.0826 µM)	0.06 µg/mL (≈ 0.0826 µM)	0.06 µg/mL (≈ 0.0826 µM)	–
